Results as given in paper PMC6332318, “Synthetic Development of New 3-(4-Arylmethylamino)butyl-5-arylidene-rhodanines under Microwave Irradiation and Their Effects on Tumor Cell Lines and against Protein Kinases” (Molecules, 2015).

What was measured:
[1] = system: Caco 2 cells (differentiating colorectal adenocarcinoma); test: in vitro inhibition of cell proliferation / survival assay; format: cell-based; settings: Homo sapiens; for viability at 25 µM: measured at 25 μM after 48 h, single dose, triplicate
Method: (§1) As an initial effort to investigate their in vitro bioactivity, the new synthesized 3-(4-arylmethylamino)butyl-2-thioxo-1,3-thiazolidine-4-one 9a–n and also their precursors 6a–f were evaluated for their in vitro inhibition of cell proliferation. For this study, we used a panel of seven representative tumoral cell lines, namely HuH7 D12 (differential hepato cellular carcinoma), Caco 2 (differentiating colorectal adenocarcinoma), MDA-MBD231 ([…]), HCT 116 (actively proliferating colorectal adenocarcinoma), PC3 (prostate carcinoma), NCI-H727 (lung carcinoma), HaCat keratinocyte and, diploid skin fibroblasts as normal cell lines for control.
(§2) Skin diploid fibroblastic cells were provided by BIOPREDIC International Company (Rennes, France). Caco2 (Ref ECACC: 86010202), Huh-7D12 (Ref ECACC: 01042712), MDA-MB-231 (Ref ECACC: 92020424), HCT-116 (Ref ECACC: 91091005), PC3 (Ref ECACC: 90112714), NCI-H727 (Ref ECACC: 94060303) cell lines were obtained from the ECACC collection and HaCaT (from Cell Lines Service, Eppelheim, Germany). Cells were grown according to ECACC recommendations. The toxicity test of the compounds on these cells was as follows: 2 × 10^3 cells for HCT-116 cells or 4 × 10^3 for the other cells were seeded in 96 multiwell plates in triplicate and left for 24 h for attachment, spreading and growing. Then, cells were exposed for 48 h to increasing concentrations of the compounds, ranging from 0.1 to 25 μM in a final volume of 120 μL of culture medium. Cells were fixed in cooled solution of 90% ethanol/5% acetic acid, nuclei were stained with Hoechst 3342 (Sigma) and counted using automated imaging analysis (Cellomics Arrayscan VTI/HCS Reader, Thermo/Scientific, Waltham, MA, USA). The IC50 were graphically determined.

[2] = system: HCT 116 cells (actively proliferating colorectal adenocarcinoma); test: as above; format: cell-based; settings: Homo sapiens; for viability at 25 µM: measured at 25 μM after 48 h, single dose, triplicate
Method: as §1, §2

HaCat keratinocyte = test: as above; format: cell-based; settings: Homo sapiens; for viability at 25 µM: measured at 25 μM after 48 h, single dose, triplicate
Method: as §1, §2

[3] = system: Huh7 D12 cells (differential hepato cellular carcinoma); test: as above; format: cell-based; settings: for viability at 25 µM: Huh-7D12, measured at 25 μM after 48 h, single dose, triplicate
Method: as §1, §2

MDA-MB231 cells = test: as above; format: cell-based; settings: Homo sapiens; for viability at 25 µM: MDA-MB-231, measured at 25 μM after 48 h, single dose, triplicate
Method: as §1, §2

[4] = system: NCI-H727 cells (lung carcinoma); test: as above; format: cell-based; settings: Homo sapiens, NCI-H727; for viability at 25 µM: measured at 25 μM after 48 h, single dose, triplicate, read-out: % of Survival
Method: as §1, §2

[5] = system: PC3 cells (prostate carcinoma); test: as above; format: cell-based; settings: Homo sapiens; for viability at 25 µM: PC-3, measured at 25 μM after 48 h, single dose, triplicate
Method: as §1, §2

diploid skin fibroblasts = test: in vitro inhibition of cell proliferation / survival assay, normal cells control; format: cell-based; settings: Skin fibroblast, Fibroblasts; for viability at 25 µM: measured at 25 μM after 48 h, single dose, triplicate, read-out: % of Survival
Method: as §1, §2

[6] = system: panel of seven representative tumoral cell lines; test: in vitro inhibition of cell proliferation, whole panel; format: cell-based; settings: all cell lines of the panel, without selectivity; read-out: IC50, moderate antitumor activities in all cell lines of the panel
Method: as §1
as §2, with “The toxicity test of the compounds on these cells was as follows: 2 × 10^3 cells for HCT-116 cells or 4 × 10^3 for the other cells were seeded in 96 multiwell plates in triplicate and left for 24 h for attachment, spreading and growing. Then, cells were exposed for 48 h to increasing concentrations of the compounds, ranging from 0.1 to 25 μM in a final volume of 120 μL of culture medium.” left out

[7] = 48 h, average of three assays, standard error ± 0.5 μM

IC50 [6] [µM] | melting point [°C] | SMILES | IC50 [1, 7] [µM] | viability at 25 µM [1] [%] | IC50 [2, 7] [µM] | viability at 25 µM [2] [%] | IC50 (HaCat keratinocyte; HaCaT, 48 h, average of three assays, standard error ± 0.5 μM) [µM] | viability at 25 µM (HaCat keratinocyte) [%] | IC50 ([3]; Huh-7D12, 48 h, average of three assays, standard error ± 0.5 μM) [µM] | viability at 25 µM [3] [%] | IC50 (MDA-MB231 cells; MDA-MB-231, 48 h, average of three assays, standard error ± 0.5 μM) [µM] | viability at 25 µM (MDA-MB231 cells) [%] | IC50 [4, 7] [µM] | viability at 25 µM [4] [%] | IC50 ([5]; PC-3, 48 h, average of three assays, standard error ± 0.5 μM) [µM] | viability at 25 µM [5] [%] | IC50 (diploid skin fibroblasts; [7]) [µM] | viability at 25 µM (diploid skin fibroblasts) [%]
10 to 17 | 191 to 193 | COc1ccc(CNCCCCN2C(=O)/C(=C/c3ccc(O)c(OC)c3)SC2=S)cc1 [Compound 9d, (5Z)3-[4-(4-Methoxyphenylmethylamino)butyl]-5-(4-hydroxy-3-methoxybenzylidene)-2-thioxo-1,3-thiazolidin-4-one] | 15 | 23 | 10 | 1 | 10 | 2 | 10 | 7 | 11 | 15 | 10 | 11 | 17 | 41 | > 25 | 29
– | 247 to 251 | COc1cccc(CNCCCCN2C(=O)/C(=C/c3ccc4c(c3)OCCO4)SC2=S)c1 [Compound 9f, (5Z)3-[4-(3-Methoxyphenylmethylamino)butyl]-5-(2,3-dihydro-1,4-benzodioxin-6-ylmethylene)-2-thioxo-1,3-thiazolidin-4-one] | – | 110 | – | 113 | – | 100 | – | 102 | – | 98 | – | 96 | – | 98 | – | 134
– | 225 to 227 | COc1cccc(/C=C2\SC(=S)N(CCCCNCc3cccc(OC)c3)C2=O)c1 [Compound 9g, (5Z)3-[4-(3-Methoxyphenylmethylamino)butyl]-5-(3-methoxybenzylidene)-2-thioxo-1,3-thiazolidin-4-one] | – | 117 | – | 118 | – | 110 | – | 111 | – | 104 | – | 95 | – | 98 | – | 100
– | 200 to 203 | COc1cc(/C=C2\SC(=S)N(CCCCNCc3ccc4c(c3)OCO4)C2=O)ccc1O [Compound 9k, (5Z)3-[4-(1,3-Benzodioxol-5-ylmethylamino)butyl]-5-(4-hydroxy-3-methoxybenzylidene)-2-thioxo-1,3-thiazolidin-4-one] | – | 98 | – | 98 | – | 80 | – | 72 | – | 92 | – | 96 | – | 83 | – | 84
